Experimental data reported in article PMC11396751, “Design, Synthesis, and Anticancer Activity of Novel Enmein-Type Diterpenoid Derivatives Targeting the PI3K/Akt/mTOR Signaling Pathway” (Molecules, 2024).

Legend:
A549 = test system: A549; design: method as in PMID 20183309, PMID 26757019, doi:10.1016/j.tetlet.2007.10.133, PMID 19431012; settings: Figure 1; cited from earlier work
HL60 = test system: HL60; design: method as in PMID 20183309, PMID 26757019, doi:10.1016/j.tetlet.2007.10.133, PMID 19431012; settings: Figure 1; cited from earlier work
MCF-7 = test system: MCF-7; design: method as in PMID 20183309, PMID 26757019, doi:10.1016/j.tetlet.2007.10.133, PMID 19431012; settings: Figure 1; cited from earlier work
HeLa = test system: HeLa; design: method as in PMID 20183309, PMID 26757019, doi:10.1016/j.tetlet.2007.10.133, PMID 19431012; settings: Figure 1; cited from earlier work
L-02 cells = test: MTT anti-proliferative assay, normal L-02 cells; assay type: cell-based; settings: Homo sapiens, L02, 48 h, means ± SD of three experiments
Description: (§1) A series of novel enmein-type diterpenoid derivatives, 5a–m, were synthesized by introducing a side chain containing a carbamate moiety at the C-6 position of compound 4. The anticancer activities of 5a–m were tested against three human cancer cell lines and one human normal cell line by MTT assay.
(§2) Human non-small cell lung cancer cell lines (A549), human liver cancer cell lines (HepG2), human breast cancer cell lines (MCF-7), and human normal cell lines (L-02) were purchased from the cell bank of the Chinese Academy of Sciences. All cells were placed in RPMI-1640 medium (added 10% fetal bovine serum, […]) and cultured in an aseptic environment with 5% CO2 at 37 °C.
(§3) All derivatives were evaluated for their anti-proliferative activities against three cancer cell lines and one normal cell line by MTT assay. The cells in the logarithmic growth phase were inoculated into 96-well plates (3 × 10^3 cells/well) and incubated for 48 h in a sterile environment with 5% CO2 at 37 °C to make them attach via cell adhesion; then, the cells were co-incubated with target compounds for 48 h. After that, MTT solution (10 µL/well) was added to the cell culture medium to continue incubation for 4 h, following which the medium was replaced with DMSO (150 µL/well). The absorbance values at 490 nm were determined using an enzyme meter (Safire 2, Tecan, Männedorf, Switzerland) and further converted to half-inhibitory concentration values of these compounds.

MCF-7 cells = test: MTT anti-proliferative assay, MCF-7; assay type: cell-based; settings: Homo sapiens, MCF7, 48 h, means ± SD of three experiments
Description: as §1, §2, §3

HepG2 cells = test: MTT anti-proliferative assay, HepG2; assay type: cell-based, human; settings: for IC50: Homo sapiens, HepG2, MTT, 48 h, means ± SD of three experiments
Description: as §1, §2, §3

A549 cells = test: MTT anti-proliferative assay, A549; assay type: cell-based, human; settings: Homo sapiens, A549; MTT, 48 h; means ± SD of three experiments
Description: as §1, §2, §3

| SMILES | IC50 (A549) [µM] | IC50 (HL60) [µM] | IC50 (MCF-7) [µM] | IC50 (HeLa) [µM] | IC50 (L-02 cells) [µM] | IC50 (MCF-7 cells) [µM] | IC50 (HepG2 cells) [µM] | IC50 (A549 cells) [µM] | anticancer activity in words, HepG2 (HepG2 cells; HepG2 cells) |
| --- | --- | --- | --- | --- | --- | --- | --- | --- | --- |
| C=C1C(=O)[C@]23C[C@H]1C[C@H](O)C2[C@@]12CO[C@@H](OC)C1C(C)(C)CC[C@@H]2OC3=O (stereo partly drawn) [Rabdosin A] | 3.53 | 2.11 | 2.82 |  |  |  |  |  |  |
| C=C1C(=O)C23CC1CCC2C12COC(O)C1C(C)(C)CCC2OC3=O (stereo not drawn) [Isodocarpin] |  | 0.57 |  | 4.01 |  |  |  |  |  |
| C=C1C(=O)C23C(=O)OC45CCC(C)(C)C6C(OC(=O)CCC(=O)NCc7ccc(C)cc7)OCC64C2CCC1C3O5 (single isomer, unassigned; ent-6) [Compound 7b, ent-6β,14α-Dihydroxy-(1,7–1,14)-epoxy-7,15-dioxo-6,20-hemiketal-6,7-seco-16-kaurene-6β-yl 4-((4-methylbenzyl)amino)-4-oxobutanoate] |  |  |  |  | > 50 | 12.8 ± 1.64 | 10.5 ± 1.68 | 7.48 ± 1.31 |  |
| C=C1C(=O)C23C(=O)OC45CCC(C)(C)C6C(OC(=O)CCC(=O)NCc7ccc(Br)cc7)OCC64C2CCC1C3O5 (single isomer, unassigned; ent-6) [Compound 7g, ent-6β,14α-Dihydroxy-(1,7–1,14)-epoxy-7,15-dioxo-6,20-hemiketal-6,7-seco-16-kaurene-6β-yl 4-((4-bromobenzyl)amino)-4-oxobutanoate] |  |  |  |  | > 50 | 13 ± 1.52 | 8.78 ± 1.46 | 8.6 ± 2.65 | low micro-molar-level anticancer activities |
| C=C1C(=O)[C@]23[C@H](O)[C@H]1CC[C@H]2[C@@]12CO[C@]3(O)[C@@H](O)[C@@H]1C(C)(C)CC[C@@H]2O [Oridonin, reference compound] |  |  |  |  | 23.6 ± 1.65 | 18.5 ± 1.37 | 22.6 ± 1.2 | 21.1 ± 1.58 |  |
